Tests used:
PARP = assay: Western blot of PARP cleavage in Cal51 cells; type: cell-based
Procedure: (§1) FIG. 3. Effect of 2-MeOE2bisMATE on caspase 8 and caspase 3 activation and PARP cleavage in Cal51 cells. Western blots showing caspase 8 and caspase 3 unprocessed and active fragments and PARP uncleaved and cleaved products following treatment of Cal51 cells with solvent, 0.05, 0.5 or 5 μM 2-MeOE2bisMATE for 48 hours.
(§2) FIG. 5. Effect of 2-MeOE2bisMATE on the timing of caspase 3 and caspase 8 activation and PARP cleavage in Cal51 cells. Western blots showing caspase 3, caspase 8 and PARP unprocessed and cleaved products at 0, 8, 16, 24 and 48 hrs following treatment of Cal51 cells with 5 μM 2-MeOE2bisMATE for 48 hrs or untreated for 48 hrs (48NT).
(§3) To determine whether caspases might play a role in cell death induced by 2-MeOE2bisMATE and other sulfamoylated oestrogen derivatives, we examined the expression of caspase 3, caspase 8 and PARP by immunoblotting (FIG. 3). […]
(§4) There are two major pathways of apoptosis; cell surface death receptors activate caspases directly via activation of caspase 8 whereas other apoptotic stimuli operate via triggering the release of cytochrome c from mitochondria which subsequently activates caspases. […] Caspase 3 activation was first detected at 16 hours and as expected was followed by PARP cleavage at 24 hours (FIG. 5). Caspase 8 activation was a relatively late event, first detected at 48 hours. […]

caspase 3 = assay: Western blot of caspase 3 activation in Cal51 cells; type: cell-based
Procedure: as §1, §2
FIG. 7. Effect of combined treatment of 2-EtEMATE or 2-MeOEMATE and TRAIL on caspase 3 activation in Cal51 cells. Western blots showing caspase 3 activation following treatment of Cal51 cells for 48 hours with solvent, 250 ng/ml TRAIL and 5 μM 2-EtEMATE or 2-MeOEMATE in the presence or absence of 250 ng/ml TRAIL. PCNA levels represent corresponding loading controls. 1, control; 2, THF solvent; 3, TRAIL; 4, 2-EtEMATE; 5,2-EtEMATE+TRAIL; 6, control; 7, THF solvent; 8, TRAIL; 9, 2-MeOEMATE; 10, 2-MeOEMATE+TRAIL
To determine whether caspases might play a role in cell death induced by 2-MeOE2bisMATE and other sulfamoylated oestrogen derivatives, we examined the expression of caspase 3, caspase 8 and PARP by immunoblotting (FIG. 3). […] Therefore, cell death induced by the 2-MeOE2bisMATE in Cal51 cells is associated with caspase activation.
There are two major pathways of apoptosis; cell surface death receptors activate caspases directly via activation of caspase 8 whereas other apoptotic stimuli operate via triggering the release of cytochrome c from mitochondria which subsequently activates caspases. Both pathways ultimately result in activation of caspase 3 and PARP cleavage. Since activation of caspase 8 is an indicator for the direct involvement of death receptors, it is important to determine whether activation of caspase 8 by 2-MeOE2bisMATE precedes or follows caspase 3 activation. We therefore performed time course experiments in Cal51 cells treated with 2-MeOE2bisMATE to order the activation events. Caspase 3 activation was first detected at 16 hours and as expected was followed by PARP cleavage at 24 hours (FIG. 5). Caspase 8 activation was a relatively late event, first detected at 48 hours. Therefore activation of caspase 3 induced by 2-MeOE2bisMATE precedes activation of caspase 8.
To further explore the mechanism for co-operation between sulfamoylated oestrones and TRAIL, we analysed activation of caspase 3 (FIG. 7). […] Therefore, sulfamoylated oestrones and TRAIL cooperate to activate caspase 3.

caspase 8 = assay: Western blot of caspase 8 activation in Cal51 cells; type: cell-based
Procedure: as §1, §2, §3, §4

DR5 protein = assay: Western blot of DR5 protein levels in Cal51 cells; type: cell-based; conditions: 48 hours, 0.05, 0.5 and 5 μM
Procedure: FIG. 6. […] Western blot showing DR5 protein levels following treatment of Cal51 cells for 48 hours with 0, 0.05, 0.5 and 5 μM of 2-MeOEMATE or 2-EtEMATE. PCNA levels represent corresponding loading controls.
Protein lysates were prepared from CAL51 cells treated with various compounds and analysed for expression of DR5 by immunoblotting (FIG. 6).

CAL51 cells = assay: TUNEL assay of apoptosis in Cal51 cells with or without caspase inhibitor ZVAD-fmk; type: cell-based; conditions: 5 μM 2-MeOE2bisMATE with 50 μM zVAD-fmk, 3 days
Procedure: FIG. 4. Effect of the caspase inhibitor ZVAD-fmk on 2-MeOE2bisMATE induced apoptosis in Cal51 cells. TUNEL assay showing % apoptosis of cells untreated or following treatment with 50 μM ZVAD-fmk, 5 μM 2-MeOE2bisMATE or 5 μM 2-MeOE2bisMATE and 50 μM zVAD-fmk for 3 days. Histograms are overlays for control cells stained in the absence of TdT enzyme (bold) or cells stained with TUNEL reaction mix (open).
To determine whether the activation of caspases was important for cell killing, we tested whether a broad range chemical caspase inhibitor interfered with apoptosis. Cells were treated with 2-MeOE2bisMATE in the presence and absence of the caspase inhibitor ZVAD-fmk and cell death was analysed using the TUNEL assay which measures the DNA cleavage associated with apoptosis. The induction of TUNEL positive cells by 2-MeOE2bisMATE was reduced by 60% in the presence of zVAD-fmk (FIG. 4). Therefore 2-MeOE2bisMATE requires activation of caspases for optimal induction of apoptosis.

[1] = in vivo; cited from earlier work
[2] = Cal51 cells, 5 μM, time course 0-48 hrs
[3] = Cal51 cells, 0.05, 0.5 or 5 μM, 48 hours

Row | Compound | time of PARP cleavage (PARP; [2]) [h] | PARP cleavage (PARP; [3]) | time at which caspase 3 activation was first detected (caspase 3; [2]) [h] | activation of caspase 3 (caspase 3; [3]) | activation of caspase 3, synergistic effect with TRAIL (caspase 3; in combination with TRAIL) | time at which caspase 8 activation was first detected (caspase 8; [2]) [h] | activation of caspase 8 (caspase 8; [3]) | DR5 protein levels by western blot (DR5 protein) | reduction of induction of TUNEL positive cells in the presence of zVAD-fmk (CAL51 cells) [%] | half-life in blood [1] [h]
1 | COc1cc2c(cc1OS(N)(=O)=O)CCC1C2CCC2(C)C(OS(N)(=O)=O)CCC12 (stereo not shown) [2-MeOE2bisMATE, 2-methoxyoestrone-3-O,17-bissulphamate] | 24 | Cleavage of PARP | 16 | dose dependent activation | increased activation of caspase 3 | 48 | dose dependent activation | no significant change | 60 | –
2 | C[C@]12CC[C@@H]3c4ccc(OS(=O)(=O)O)cc4CC[C@H]3[C@@H]1CCC2=O [E1S, oestrone sulphate] | – | – | – | – | – | – | – | – | – | 10 to 12

From patent US7211246B2, “Compositions comprising oestrone-3-0-sulphamate and trail (TNF-related apoptosis inducing ligand)” (Sterix Limited, priority 2001, dated 2007)
